The test system of this experiment is pituitaries removed from 20 day old female rats. In words: In Vitro Growth Hormone Release Study. To be noted: mean ± SEM, control -180 ± 108. Type of experiment: cell-based, rat. The procedure:
Female rats of the CD-1 strain were housed in a constant temperature room at 24° C. with 14 hours light and 10 hours darkness. The rats were fed Purina brand rat chow ab libitum.
All studies were started between 0800 and 1000 hours.
Pituitaries were removed from 20 day old female rats. Two pituitaries were incubated at 36° C. in 1 ml of lactated Ringer's solution in 10 ml polytetrafluoroethylene beakers in a Dubnoff Shaker (90 cycles/min.). The pituitaries were incubated a total of 4 hours (P1, P2, I3, and I4). After two successive one hour preincubation periods (P1, P2), the peptide was added to the incubation medium hourly for 2 hours (I3, I4).
This in vitro study was performed in triplicate and a standard radioimmunoassay of growth hormone present in the incubation medium was performed in duplicate. The hormonal activity was calculated as the difference (Δ) of growth hormone (GH) levels between I3, I4 and P2, i.e., (I3 -P2) and (I4 -P2). P values were calculated by Students' t test using six growth hormone values for each value recorded.
The growth hormone radioimmunoassay reagents were distributed by the National Institute of Arthritis and […] (NIAMDD) program. The growth hormone values were calculated in terms of nanograms (ng) of a rat standard with a growth hormone potency of 0.61 units/mg.

Square brackets hold non-standard residues; d marks the D form. Peptide text beside a SMILES is read from it.

`NCCCC[C@@H](N)C(=O)N[C@@H](Cc1ccc(O)cc1)C(=O)N[C@H](Cc1c[nH]c2ccccc12)C(=O)N[C@H](Cc1c[nH]c2ccccc12)C(=O)N[C@@H](Cc1ccccc1)C(N)=O` [H2 N--D--Lys--Tyr--D--Trp--D--Trp--Phe--CONH2] (H-[dK]Y[dW][dW]F-NH2): the “IN VITRO GROWTH HORMONE RELEASE (ΔGH, I3-P2 and I4-P2)” value by setting is: (peptide 1μg, P Value <0.01) 1046 ± 266 ngΔGH/ml incubation medium; (peptide 20μg, P Value <0.001) 1487 ± 197 ngΔGH/ml incubation medium; (peptide 100μg, P Value <0.001) 1654 ± 329 ngΔGH/ml incubation medium.

The record behind these values is patent US4223019A, “Synthetic peptides having pituitary growth hormone releasing activity” (Beckman Instruments, Inc., priority 1979, dated 1980).
